Reference: patent US20260125686A1, “COMPOSITIONS AND METHODS FOR MODULATION OF CFTR” (Cystic Fibrosis Foundation, priority 2022, published 2026)

Biological target: T1, Del23-27 CFTR protein (Homo sapiens, UniProt P13569)
T1 construct: contain the first 1239 amino acids of a WT CFTR; endogenous in cells; host or cells: 16HBE14o- derived Del23-27 clones 2-H07, 3-B09, 3-D01 (CRISPR genomic deletion)
Assay: TECC-24 conductance assay in D23-27 (Del23-27) clonal lines
Format: cell-based
Description: Electrophysiology. Clonal lines were seeded at a density of 4.5×10^5 cells cm-2 onto HTS Transwell 24-well filter inserts pre-coated with human collagen type IV. Cells were grown as submerged cultures in MEM (Gibco, 11095) containing 10% FBS and 1% Pen/Strep, and incubated at 37° C. and 5% CO2. Cells were treated from both the basolateral and apical side with fresh medium containing either control (vehicle) or test article for the treatment time indicated in the figure legends. After a total of 7 days, 16HBE cells typically formed electrically tight epithelia with a transepithelial resistance (Rt) of 200-600 Ω·cm2 and CFTR-mediated Cl— equivalent current (Ieq) was determined as described below. Prior to functional (Ieq) studies, MEM was replaced with fresh HEPES-buffered (pH 7.4) solutions (assay buffer). A driving force for chloride ions was established through application of a basolateral to apical chloride ion gradient (see buffer composition below). Cell plates were mounted onto an automated robotic assay platform and equilibrated at ˜36° C. for 90 min. After equilibration, transepithelial voltage (Vt) and resistance (Rt) were monitored at ˜5 min intervals using a 24-channel transepithelial current clamp amplifier (TECC-24, EP Design, Bertem, Belgium). Electrode potential differences for each pair of Ag/AgCl voltage electrodes were also monitored at 5 min intervals by taking voltage measurements from a control plate with matching buffer solutions and 16HBE cells that were left untreated. Ieq was calculated from values of Vt and Rt using Ohm's law after correcting for series resistance and (electrode) voltage offsets unrelated to Vt. Ieq traces are plotted as mean±SD (n=3). The first 4 data points reflect baseline Ieq currents prior to sequential stimulation of CFTR with forskolin (10 μM) and VX-770/ivacaftor (1 μM). The last six data points were recorded in the presence of CFTR inhibitor CFTRinh-172 (20 μM). Agonists/antagonists were pre-diluted to 10-fold concentrations in assay buffer and add-ed to either the basolateral (forskolin) or apical (forskolin, VX-770/ivacaftor, and CFTRinh-172) side of the membrane (assay plates only). CFTR-mediated changes in Ieq, (i.e., delta forskolin, delta VX-770, delta CFTRinh-172, or the area under the curve (AUC) between forskolin and CFTRinh-172 addition) are used as a measure of functional CFTR surface expression or treatment-related functional rescue of mutant CFTR. Assay buffer: CFTR-mediated transepithelial currents were recorded using a Cl— concentration gradient. The basolateral solution contained (mM): 137 NaCl, 4 KCl, 1.8 CaCl2, 1 MgCl2, 10 HEPES and D-Glucose, adjusted to pH 7.4 with NaOH/HCl ([CI-] total: 146.6 mM). The apical solution was matched to the basolateral except for (mM): 137 Na-gluconate replaced 137 NaCl ([Cl—] total: 9.6 mM). To assess the functional consequence of forcing intron 22 ApA usage, D23-27 clonal lines 2-H07, 3-B09, 3-D01 were subjected to 48 hours treatment of vehicle control (0.002% DMSO) or VX-445/VX-661 (3/3 μM), and acute in assay addition of VX-770 (1 μM) and CFTR function was assessed using the transepithelial current clamp (TECC) conductance assay. Potentiators/correctors Trikafta restored the function of the Del23-27 CFTR protein to a significant fraction of WT function, as shown in FIG. 11A. Briefly, transepithelial chloride conductance assay (TECC-24 assay) was conducted in WT 16HBE14o- (treated with vehicle), 16HBEge-F508del (treated with VX-809), and Del23-27 clones (treated with VX-445/661), using sequential treatment of forskolin, VX-770, and CFTR inhibitor 172. In the presence of VX-445/VX-661/VX-770 (Trikafta), Del23-27 CFTR protein function was restored, shown as chloride conductance induced by VX-770 and inhibited by to CFTR (inh)-172. CFTR function can be assayed by comparing the induced chloride conductance area under curve (AUC) of the cell lines utilized. […]

T1 sequence (P13569 with tags, fused parts or gaps): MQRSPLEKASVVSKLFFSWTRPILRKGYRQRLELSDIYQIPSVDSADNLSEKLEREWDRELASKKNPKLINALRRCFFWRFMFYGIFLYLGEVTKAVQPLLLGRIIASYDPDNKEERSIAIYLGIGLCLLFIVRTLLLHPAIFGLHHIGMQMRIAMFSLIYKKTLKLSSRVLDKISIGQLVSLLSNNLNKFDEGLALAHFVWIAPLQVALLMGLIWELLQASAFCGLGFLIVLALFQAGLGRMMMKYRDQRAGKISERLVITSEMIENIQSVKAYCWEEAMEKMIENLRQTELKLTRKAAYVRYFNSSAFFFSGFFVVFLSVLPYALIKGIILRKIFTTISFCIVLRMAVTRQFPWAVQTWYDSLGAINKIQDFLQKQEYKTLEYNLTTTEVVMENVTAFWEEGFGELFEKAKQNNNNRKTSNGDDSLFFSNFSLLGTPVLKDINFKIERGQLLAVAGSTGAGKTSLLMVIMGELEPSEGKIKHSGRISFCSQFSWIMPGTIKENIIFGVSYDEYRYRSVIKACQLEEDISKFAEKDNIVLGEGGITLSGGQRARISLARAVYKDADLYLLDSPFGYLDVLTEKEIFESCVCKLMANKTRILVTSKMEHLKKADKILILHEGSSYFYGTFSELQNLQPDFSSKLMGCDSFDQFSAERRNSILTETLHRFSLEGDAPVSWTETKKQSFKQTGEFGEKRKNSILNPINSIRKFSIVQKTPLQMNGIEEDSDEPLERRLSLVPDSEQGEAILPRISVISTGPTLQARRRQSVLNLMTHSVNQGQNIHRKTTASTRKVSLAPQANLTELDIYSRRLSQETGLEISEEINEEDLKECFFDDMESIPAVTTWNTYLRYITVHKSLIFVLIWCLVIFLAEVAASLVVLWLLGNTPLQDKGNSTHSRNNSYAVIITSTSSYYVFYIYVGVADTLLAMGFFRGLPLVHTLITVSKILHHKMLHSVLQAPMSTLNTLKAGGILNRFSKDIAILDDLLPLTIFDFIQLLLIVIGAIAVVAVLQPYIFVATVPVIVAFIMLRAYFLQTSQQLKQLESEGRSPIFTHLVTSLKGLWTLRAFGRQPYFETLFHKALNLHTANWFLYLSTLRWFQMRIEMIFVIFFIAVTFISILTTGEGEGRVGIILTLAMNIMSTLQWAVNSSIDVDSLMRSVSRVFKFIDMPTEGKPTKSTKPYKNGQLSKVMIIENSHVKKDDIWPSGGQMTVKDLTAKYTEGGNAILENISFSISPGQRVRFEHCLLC

“elexacaftor/ivacaftor/tezacaftor [Trikafta]” was tested, and the “Cl— current as WT 16HBE14o- function (FSK only)” value (2-H07, VX-445/VX-661/VX-770 (3/3/3 μM)) was roughly 42% and the “maximum CFTR Cl— current, FSK+VX-770 AUC/min” value (2-H07 clonal line, VX-770 dose escalation, 3.0 μM (+) VX-445/VX-661 (3/3/3 μM)) was 50.6 μA/cm^2.
